For orientation: IC50 means the concentration that gives 50% inhibition. Low readings indicate inhibition by little substance, high ones a need for much substance.

This assay addresses T1, HPK1 protein (Homo sapiens, UniProt Q92918).
T1 construct: purchased Signal Chem M23-11G-10
T1 sequence (Q92918 1-346 limits assumed): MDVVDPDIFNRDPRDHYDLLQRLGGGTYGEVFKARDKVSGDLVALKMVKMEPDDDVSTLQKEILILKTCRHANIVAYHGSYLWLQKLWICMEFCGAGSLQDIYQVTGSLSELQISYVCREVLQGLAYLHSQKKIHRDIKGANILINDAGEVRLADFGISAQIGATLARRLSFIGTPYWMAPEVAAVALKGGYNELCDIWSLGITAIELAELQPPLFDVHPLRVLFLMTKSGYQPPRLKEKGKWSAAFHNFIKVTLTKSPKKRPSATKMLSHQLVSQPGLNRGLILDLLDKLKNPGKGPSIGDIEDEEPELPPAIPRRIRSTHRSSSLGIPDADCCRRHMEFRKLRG
The assay is described as follows: HPK1 enzyme inhibition assay (ADP-Glo). In kind it is biochemical. The conditions noted are these: MBP substrate, ATP, ADP-Glo readout. As for the experimental part:
The compound was dissolved in 100% DMSO at the concentration of 10 mM. The HPK1 protein was purchased from Signal Chem (M23-11G-10). 2.5 μL per well of 2×HPK1 protein was added to assay plate containing the test compound, centrifuged at 1500 rpm for 1 minute, and then incubated at 25° C. for 60 minutes. MBP protein was purchased from Signal Chem (M42-51N) and ATP was purchased from Promega (V9102). The two were added 2.5 μL per well mixture of 2×MBP (0.2 ug/ul) and ATP (20 μM), centrifuged at 1500 rpm for 1 minute, then incubated at 25° C. for 60 minutes. Then added 5 μL of ADP-Glo from Promega (V9102) to the assay plate and depleted the unconsumed ATP for 60 minutes. Then centrifuged at 1500 rpm for 1 minute and incubated at 25° C. for 60 minutes. Finally, 10 μL of the kinase assay reagent from Promega (V9102) was added to the assay plate to convert ADP to ATP, centrifuged at 1500 rpm for 1 minute, incubate at 25° C. for 40 minutes. After 40 minutes incubation, the […] was determined. Based on the results, the IC50 value of the compound was calculated.
Turning to `CCc1c[nH]c2ncc(-c3cccc(N4CCN(C(=O)CCCCCCCOc5cccc6c5CN(C5CCC(=O)N(C)C5=O)C6=O)CC4=O)c3)c(Cl)c12` (stereo not shown) [Example 2, 3-(4-((8-(4-(3-(4-chloro-3-ethyl-1H-pyrrolo[2,3-b]pyridin-5-yl)phenyl)-3-oxopiperazin-1-yl)-8-oxooctyl)oxy)-1-oxoisoindolin-2-yl)-1-methylpiperidine-2,6-dione], the IC50 lay in the range of 100 to 1000 nM.

On to `CCc1c[nH]c2ncc(-c3cccc(N4CCN(C(=O)COc5cccc6c5CN(C5CCC(=O)NC5=O)C6=O)CC4=O)c3)c(Cl)c12` (stereo not shown) [Example 3], for which the half-maximal inhibitory concentration (IC50) is not above 10 nM.

Take `CCc1c[nH]c2ncc(-c3cccc(N4CCN(C(=O)CCCOc5cccc6c5CN(C5CCC(=O)NC5=O)C6=O)CC4=O)c3)c(Cl)c12` (stereo not shown) [Example 4, 3-(4-(4-(4-(3-(4-chloro-3-ethyl-1H-pyrrolo[2,3-b]pyridin-5-yl)phenyl)-3-oxopiperazin-1-yl)-4-oxobutoxy)-1-oxoisoindolin-2-yl)piperidine-2,6-dione]: the IC50 lay within 10 to 100 nM.

Regarding `CCc1c[nH]c2ncc(-c3cccc(N4CCN(C(=O)CCCCCOc5cccc6c5CN(C5CCC(=O)NC5=O)C6=O)CC4=O)c3)c(Cl)c12` (stereo not shown) [Example 5, 3-(4-((6-(4-(3-(4-chloro-3-ethyl-1H-pyrrolo[2,3-b]pyridin-5-yl)phenyl)-3-oxopiperazin-1-yl)-6-oxohexyl)oxy)-1-oxoisoindolin-2-yl)piperidine-2,6-dione], the half-inhibitory concentration (IC50) fell in the range of 10 to 100 nM.

`CCc1c[nH]c2ncc(-c3cccc(N4CCN(C(=O)CCCCCCOc5cccc6c5CN(C5CCC(=O)NC5=O)C6=O)CC4=O)c3)c(Cl)c12` (stereo not shown) [Example 6, 3-(4-((7-(4-(3-(4-chloro-3-ethyl-1H-pyrrolo[2,3-b]pyridin-5-yl)phenyl)-3-oxopiperazin-1-yl)-7-oxoheptyl)oxy)-1-oxoisoindolin-2-yl)piperidine-2,6-dione]: the IC50 lay in the range of 10 to 100 nM.

In the case of `CCc1c[nH]c2ncc(-c3cccc(N4CCN(C(=O)CCCCCCCCCOc5cccc6c5CN(C5CCC(=O)NC5=O)C6=O)CC4=O)c3)c(Cl)c12` (stereo not shown) [Example 7, 3-(4-((10-(4-(3-(4-chloro-3-ethyl-1H-pyrrolo[2,3-b]pyridin-5-yl)phenyl)-3-oxopiperazin-1-yl)-10-oxodecyl)oxy)-1-oxoisoindolin-2-yl)piperidine-2,6-dione], the half-inhibitory concentration (IC50) was 100 to 1000 nM.

Compound `CCc1c[nH]c2ncc(-c3cccc(N4CCN(C(=O)CCCCCCCOc5cccc6c5C(=O)N(C5CCC(=O)NC5=O)C6=O)CC4=O)c3)c(Cl)c12` (stereo not shown) [Example 9, 4-((8-(4-(3-(4-chloro-3-ethyl-1H-pyrrolo[2,3-b]pyridin-5-yl)phenyl)-3-oxopiperazin-1-yl)-8-oxooctyl)oxy)-2-(2,6-dioxopiperidin-3-yl)isoindoline-1,3-dione] gave an IC50 of 10 to 100 nM.

Compound `CCc1c[nH]c2ncc(-c3cccc(N4CCN(C(=O)CCCCCCCNc5cccc6c5CN(C5CCC(=O)NC5=O)C6=O)CC4=O)c3)c(Cl)c12` (stereo not shown) [Example 10, 3-(4-((8-(4-(3-(4-chloro-3-ethyl-1H-pyrrolo[2,3-b]pyridin-5-yl)phenyl)-3-oxopiperazin-1-yl)-8-oxooctyl)amino)-1-oxoisoindolin-2-yl)piperidine-2,6-dione] had a half-inhibitory concentration (IC50) of 100 to 1000 nM.

In turn, `CCc1c[nH]c2ncc(-c3cccc(N4CCN(C(=O)CCCCCCCN(C)c5cccc6c5CN(C5CCC(=O)NC5=O)C6=O)CC4=O)c3)c(Cl)c12` (stereo not shown) [Example 11, 3-(4-((8-(4-(3-(4-chloro-3-ethyl-1H-pyrrolo[2,3-b]pyridin-5-yl)phenyl)-3-oxopiperazin-1-yl)-8-oxooctyl)(methyl)amino)-1-oxoisoindolin-2-yl)piperidine-2,6-dione] had an IC50 of 100 to 1000 nM.

`CCc1c[nH]c2ncc(-c3cccc(N4CCN(C(=O)CCOCCOCc5cn(-c6cccc7c6CN(C6CCC(=O)NC6=O)C7=O)nn5)CC4=O)c3)c(Cl)c12` (stereo not shown) [Example 13, 3-(4-(4-((2-(3-(4-(3-(4-chloro-3-ethyl-1H-pyrrolo[2,3-b]pyridin-5-yl)phenyl)-3-oxopiperazin-1-yl)-3-oxopropoxy)ethoxy)methyl)-1H-1,2,3-triazol-1-yl)-1-oxoisoindolin-2-yl)piperidine-2,6-dione] came in with an IC50 of 10 to 100 nM.

As to `CCc1c[nH]c2ncc(-c3cccc(N4CCN(C(=O)CCCCCN(C)c5cccc6c5CN(C5CCC(=O)NC5=O)C6=O)CC4=O)c3)c(Cl)c12` (stereo not shown) [Example 14, 3-(4-((6-(4-(3-(4-chloro-3-ethyl-1H-pyrrolo[2,3-b]pyridin-5-yl)phenyl)-3-oxopiperazin-1-yl)-6-oxohexyl)(methyl)amino)-1-oxoisoindolin-2-yl)piperidine-2,6-dione], the half-inhibitory concentration (IC50) fell in the range of 10 to 100 nM.

Take `CCc1c[nH]c2ncc(-c3cccc(N4CCN(C(=O)CCCN(C)c5cccc6c5CN(C5CCC(=O)NC5=O)C6=O)CC4=O)c3)c(Cl)c12` (stereo not shown) [Example 15, 3-(4-((4-(4-(3-(4-chloro-3-ethyl-1H-pyrrolo[2,3-b]pyridin-5-yl)phenyl)-3-oxopiperazin-1-yl)-4-oxobutyl)(methyl)amino)-1-oxoisoindolin-2-yl)piperidine-2,6-dione]: the half-maximal inhibitory concentration (IC50) is 10 to 100 nM.

The compound `CCc1c[nH]c2ncc(-c3cccc(N4CCN(C(=O)COC5CCN(c6cccc7c6C(=O)N(C6CCC(=O)NC6=O)C7=O)CC5)CC4=O)c3)c(Cl)c12` (stereo not shown) [Example 17, 4-(4-(2-(4-(3-(4-chloro-3-ethyl-1H-pyrrolo[2,3-b]pyridin-5-yl)phenyl)-3-oxopiperazin-1-yl)-2-oxoethoxy)piperidin-1-yl)-2-(2,6-dioxopiperidin-3-yl)isoindoline-1,3-dione] gave an IC50 of 100 to 1000 nM.

In the case of `CCc1c[nH]c2ncc(-c3cccc(N4CCN(C(=O)COC5CN(c6cccc7c6C(=O)N(C6CCC(=O)NC6=O)C7=O)C5)CC4=O)c3)c(Cl)c12` (stereo not shown) [Example 18, 4-(3-(2-(4-(3-(4-chloro-3-ethyl-1H-pyrrolo[2,3-b]pyridin-5-yl)phenyl)-3-oxopiperazin-1-yl)-2-oxoethoxy)azetidin-1-yl)-2-(2,6-dioxopiperidin-3-yl)isoindoline-1,3-dione], the half-maximal inhibitory concentration (IC50) was 10 to 100 nM.

Consider `CCc1c[nH]c2ncc(-c3cccc(N4CCN(C(=O)CCCCCNc5ccc6c(c5)C(=O)N(C5CCC(=O)NC5=O)C6=O)CC4=O)c3)c(Cl)c12` (stereo not shown) [Example 19, 5-((6-(4-(3-(4-chloro-3-ethyl-1H-pyrrolo[2,3-b]pyridin-5-yl)phenyl)-3-oxopiperazin-1-yl)-6-oxohexyl)amino)-2-(2,6-dioxopiperidin-3-yl)isoindoline-1,3-dione], for which the IC50 is 10 to 100 nM.

`CCc1c[nH]c2ncc(-c3cccc(N4CCN(C(=O)CCN5CCN(c6cccc7c6C(=O)N(C6CCC(=O)NC6=O)C7=O)CC5)CC4=O)c3)c(Cl)c12` (stereo not shown) [Example 20, 4-(4-(3-(4-(3-(4-chloro-3-ethyl-1H-pyrrolo[2,3-b]pyridin-5-yl)phenyl)-3-oxopiperazin-1-yl)-3-oxopropyl)piperazin-1-yl)-2-(2,6-dioxopiperidin-3-yl)isoindoline-1,3-dione] came in with an IC50 of 10 to 100 nM.

The compound `CCc1c[nH]c2ncc(-c3cccc(N4CCN(CC(=O)N5CCN(c6ccc7c(c6)C(=O)N(C6CCC(=O)NC6=O)C7=O)CC5)CC4=O)c3)c(Cl)c12` (stereo not shown) [Example 34, 5-(4-(2-(4-(3-(4-chloro-3-ethyl-1H-pyrrolo[2,3-b]pyridin-5-yl)phenyl)-3-oxopiperazin-1-yl)acetyl)piperazin-1-yl)-2-(2,6-dioxopiperidin-3-yl)isoindoline-1,3-dione] returned an IC50 of 10 to 100 nM.

The compound `CCc1c[nH]c2ncc(-c3cccc(N4CCN(CCNC(=O)C5CCN(c6ccc7c(c6)C(=O)N(C6CCC(=O)NC6=O)C7=O)CC5)CC4=O)c3)c(Cl)c12` (stereo not shown) [Example 37] came in with an IC50 of more than 1000 nM.

For `CCc1c[nH]c2ncc(-c3cccc(N4CCN(CCNc5ccc6c(c5)C(=O)N(C5CCC(=O)NC5=O)C6=O)CC4=O)c3)c(Cl)c12` (stereo not shown) [Example 60, 5-((2-(4-(3-(4-chloro-3-ethyl-1H-pyrrolo[2,3-b]pyridin-5-yl)phenyl)-3-oxopiperazin-1-yl)ethyl)amino)-2-(2,6-dioxopiperidin-3-yl)isoindoline-1,3-dione], the half-maximal inhibitory concentration (IC50) is 10 to 100 nM.

In turn, `CCc1c[nH]c2ncc(-c3cccc(N4CCN(C(=O)CCCCCCCOc5ccc6c(c5)C(=O)N(C5CCC(=O)NC5=O)C6)CC4=O)c3)c(Cl)c12` (stereo not shown) [Example 65, 3-(6-((8-(4-(3-(4-chloro-3-ethyl-1H-pyrrolo[2,3-b]pyridin-5-yl)phenyl)-3-oxopiperazin-1-yl)-8-oxooctyl)oxy)-1-oxoisoindolin-2-yl)piperidine-2,6-dione] came in with an IC50 of 10 to 100 nM.

Take `CCc1c[nH]c2ncc(-c3cccc(N4CCN(C(=O)COc5ccc6c(c5)C(=O)N(C5CCC(=O)NC5=O)C6)CC4=O)c3)c(Cl)c12` (stereo not shown) [Example 66]: the IC50 was not above 10 nM.

The compound `CCc1c[nH]c2ncc(-c3cccc(N4CCN(C(=O)CCCOc5ccc6c(c5)C(=O)N(C5CCC(=O)NC5=O)C6)CC4=O)c3)c(Cl)c12` (stereo not shown) [Example 67] returned an IC50 of 10 to 100 nM.

The values are drawn from US20240368159A1, “HPK1 DEGRADERS, COMPOSITIONS COMPRISING THE HPK1 DEGRADER, AND METHODS OF USING THE SAME” (BIOFRONT LTD, priority 2021, published 2024).
